Results published in the NIST ThermoML archive (doi:10.1016/j.jct.2013.11.013).
“And” between values parts separate entries of the source, which are not always exact repeats. Identical values can stand only once.

Assays:
[1] = molar enthalpy of vaporization or sublimation; conditions: 298.15 K; Crystal; Static calorimetry
[2] = Molar enthalpy of transition or fusion; conditions: Crystal; DSC
[3] = Crystal; for vapor or sublimation pressure: Calculated from knudsen effusion weight loss; for Normal melting temperature: DTA

c1ccc2c(c1)Nc1ccccc1S2 [10H-phenothiazine]
Conditions | Molar enthalpy of transition or fusion [kcal/mol] | Normal melting temperature [°C] | molar enthalpy [kcal/mol]
[1] | – | – | 24.69
[2] | 6.43 | – | –
[3] | – | 185.70 | –

[3]
Conditions | vapor or sublimation pressure
357.16 K | 0.0001222 kPa and 0.000127 kPa and 0.0001245 kPa
359.11 K | 0.000157 kPa and 0.0001593 kPa and 0.000151 kPa
361.09 K | 0.0001862 kPa and 0.0001894 kPa
363.16 K | 0.0002302 kPa and 0.0002289 kPa and 0.0002278 kPa
365.1 K | 0.0002854 kPa and 0.0002713 kPa and 0.0002851 kPa
367.08 K | 0.0003408 kPa and 0.0003366 kPa and 0.0003279 kPa
369.16 K | 0.0004206 kPa and 0.0004159 kPa and 0.0004168 kPa
371.1 K | 0.0005122 kPa and 0.000496 kPa and 0.000513 kPa
373.09 K | 0.0006118 kPa and 0.0005996 kPa
375.14 K | 0.0007352 kPa and 0.0007169 kPa and 0.0007525 kPa
377.11 K | 0.0008924 kPa and 0.0008545 kPa and 0.0008994 kPa
379.1 K | 0.0009984 kPa and 0.0009874 kPa and 0.001053 kPa

c1ccc2c(c1)Nc1ccccc1O2 [phenoxazine]
Conditions | Molar enthalpy of transition or fusion [kcal/mol] | Normal melting temperature [°C] | molar enthalpy [kcal/mol]
[1] | – | – | 24.26
[2] | 5.14 | – | –
[3] | – | 157.58 | –

[3]
Conditions | vapor or sublimation pressure
333.18 K | 9.52e-05 kPa and 9.41e-05 kPa and 9.09e-05 kPa
335.2 K | 0.0001178 kPa and 0.000118 kPa and 0.0001119 kPa
337.1 K | 0.0001463 kPa and 0.000143 kPa and 0.0001421 kPa
339.17 K | 0.0001789 kPa and 0.0001744 kPa and 0.0001819 kPa
341.24 K | 0.0002193 kPa and 0.0002141 kPa and 0.0002236 kPa
343.14 K | 0.0002773 kPa and 0.0002712 kPa and 0.0002629 kPa
345.17 K | 0.0003274 kPa and 0.0003216 kPa and 0.0003308 kPa
347.19 K | 0.0004072 kPa and 0.0003893 kPa and 0.0004049 kPa
349.11 K | 0.000488 kPa and 0.0004919 kPa and 0.0004776 kPa
351.17 K | 0.000606 kPa and 0.0005906 kPa and 0.0006233 kPa
353.17 K | 0.0007525 kPa and 0.000734 kPa and 0.0007159 kPa
355.1 K | 0.0008813 kPa and 0.0008967 kPa and 0.0008889 kPa
357.1 K | 0.001069 kPa and 0.001075 kPa and 0.001077 kPa
